Test results as given in the NIST ThermoML archive (doi:10.1021/je050196o).

Tests used:
[1] = 101 kPa, Liquid; for viscosity: Capillary tube (Ostwald / Ubbelohde) method; for mass density: Pycnometric method
[2] = xn = mol fraction of the nth substance listed; settings: 101 kPa, Liquid; for viscosity: Capillary tube (Ostwald / Ubbelohde) method; for mass density: Pycnometric method

COCC(C)OC(C)=O (configuration not stated) [1-methoxy-2-propyl acetate]
[1]
Settings	mass density [kg/m3]	viscosity [mPa·s]
298.15 K	961.4	1.071
308.15 K	951.4	0.904
318.15 K	940.7	0.777

C=C(C)C(=O)OCc1ccccc1 [benzyl methacrylate] + COCC(C)OC(C)=O
[2]
Settings	mass density, 298.15 K [kg/m3]	mass density, 308.15 K [kg/m3]	mass density, 318.15 K [kg/m3]	viscosity, 298.15 K [mPa·s]	viscosity, 308.15 K [mPa·s]	viscosity, 318.15 K [mPa·s]
x2 = 0	1034.7	1025.8	1017	2.302	1.885	1.58
x2 = 0.1	1029	1019.9	1010.9	2.245	1.84	1.544
x2 = 0.2	1023.1	1013.8	1004.6	2.123	1.743	1.465
x2 = 0.3	1017	1007.6	998.2	1.991	1.638	1.377
x2 = 0.4	1010.6	1001.1	991.5	1.857	1.53	1.289
x2 = 0.4999	1003.8	994.2	984.4	1.694	1.399	1.183
x2 = 0.6	996.6	986.9	976.9	1.559	1.286	1.086
x2 = 0.7	989	979.2	969	1.434	1.189	1.007
x2 = 0.8	980.7	970.7	960.3	1.327	1.105	0.937
x2 = 0.9	971.9	961.8	951.2	1.232	1.028	0.874

COCC(C)OC(C)=O (configuration not stated) [1-methoxy-2-propyl acetate] + C=C(C)C(=O)OCCO
[2], x1 = 1
Settings	mass density [kg/m3]	viscosity [mPa·s]
298.15 K	961.4	1.071
308.15 K	951.4	0.904
318.15 K	940.7	0.777

COCC(C)OC(C)=O (configuration not stated) [1-methoxy-2-propyl acetate] + C=C(C)C(=O)OCc1ccccc1
[2], x1 = 1
Settings	mass density [kg/m3]	viscosity [mPa·s]
298.15 K	961.4	1.071
308.15 K	951.4	0.904
318.15 K	940.7	0.777

C=C(C)C(=O)OCCO [2-hydroxyethyl 2-methyl-2-propenoate]
[1]
Settings	mass density [kg/m3]	viscosity [mPa·s]
298.15 K	1067.1	5.784
308.15 K	1057.7	4.194
318.15 K	1048.6	3.181

COCC(C)OC(C)=O (configuration not stated) [1-methoxy-2-propyl acetate] + C=C(C)C(=O)O
[2], x1 = 1
Settings	mass density [kg/m3]	viscosity [mPa·s]
298.15 K	961.4	1.071
308.15 K	951.4	0.904
318.15 K	940.7	0.777

C=C(C)C(=O)OCc1ccccc1 [benzyl methacrylate]
[1]
Settings	mass density [kg/m3]	viscosity [mPa·s]
298.15 K	1034.7	2.302
308.15 K	1025.8	1.885
318.15 K	1017	1.58

C=C(C)C(=O)OCCO [2-hydroxyethyl 2-methyl-2-propenoate] + COCC(C)OC(C)=O
[2]
Settings	mass density, 298.15 K [kg/m3]	mass density, 308.15 K [kg/m3]	mass density, 318.15 K [kg/m3]	viscosity, 298.15 K [mPa·s]	viscosity, 308.15 K [mPa·s]	viscosity, 318.15 K [mPa·s]
x2 = 0	1067.1	1057.7	1048.6	5.784	4.194	3.181
x2 = 0.1	1056.4	1046.7	1037.3	4.764	3.519	2.71
x2 = 0.2	1045.7	1035.9	1026.1	3.84	2.9	2.273
x2 = 0.3	1034.9	1025	1015.1	3.222	2.477	1.969
x2 = 0.4	1024.1	1014.2	1004.1	2.719	2.123	1.709
x2 = 0.5	1013.5	1003.5	993.3	2.257	1.79	1.461
x2 = 0.6	1003	993	982.6	1.922	1.55	1.284
x2 = 0.7	992.6	982.5	972	1.651	1.341	1.117
x2 = 0.8	982.2	971.9	961.3	1.389	1.147	0.969
x2 = 0.8999	971.8	961.5	950.8	1.234	1.052	0.889

C=C(C)C(=O)O [2-methyl-2-propenoic acid] + COCC(C)OC(C)=O
[2]
Settings	mass density, 298.15 K [kg/m3]	mass density, 308.15 K [kg/m3]	mass density, 318.15 K [kg/m3]	viscosity, 298.15 K [mPa·s]	viscosity, 308.15 K [mPa·s]	viscosity, 318.15 K [mPa·s]
x2 = 0	1009.5	999.4	989.2	1.267	1.078	0.945
x2 = 0.1	1004	994.1	983.9	1.423	1.202	1.033
x2 = 0.2	999	989.3	979.4	1.506	1.301	1.105
x2 = 0.3	993.9	984.1	973.9	1.56	1.345	1.124
x2 = 0.3999	989.1	979.2	968.9	1.585	1.348	1.125
x2 = 0.5	984.8	975	964.8	1.569	1.31	1.1
x2 = 0.6	980.1	970.3	959.9	1.499	1.24	1.049
x2 = 0.7	975.8	966	955.5	1.411	1.168	0.988
x2 = 0.7999	970.8	960.9	950.5	1.301	1.081	0.929
x2 = 0.9	965.8	956	945.6	1.175	0.985	0.844

C=C(C)C(=O)O [2-methyl-2-propenoic acid]
[1]
Settings	mass density [kg/m3]	viscosity [mPa·s]
298.15 K	1009.5	1.267
308.15 K	999.4	1.078
318.15 K	989.2	0.945
